In brackets after ≈: the same amount, converted by molar mass. Activity calls are given as the source filed them. The calls are words filed in the database; no cut-off is given here.
What was measured:
[1] = Solubility of compound in PBS at pH 6.0 incubated for 2 hrs by HPLC analysis; format: physicochemical
NCI-H1975 [2] = experiment: Anti-proliferative activity against human NCI-H1975 cells assessed as cell inhibition measured after 72 hrs by MTT assay; format: functional, cell-based; conditions: NCI-H1975, 72 h
[3] = Anti-proliferative activity against human Osimertinib-resistant HCC827 cells assessed as cell inhibition measured after 72 hrs by MTT assay; format: functional, cell-based
CDK9/cyclin T1 = CDK9/cyclin T1 (Homo sapiens, UniProt P50750); experiment: Inhibition of CDK9/cyclin T1 (unknown origin) preincubated for 10 mins followed by substrate/ATP measured after 60 mins by ADP-Glo assay; format: protein-complex assay
CDK2/Cyclin A2 = CDK2/Cyclin A2 (Homo sapiens, UniProt P24941); experiment: Inhibition of CDK2/Cyclin A2 (unknown origin) preincubated for 10 mins followed by substrate/ATP measured after 60 mins by ADP-Glo assay; format: protein-complex assay
[4] = system: Osimertinib-resistant NCI-H1975 cell; experiment: Anti-proliferative activity against human Osimertinib-resistant NCI-H1975 cells assessed as cell inhibition measured after 72 hrs by MTT assay; format: functional, cell-based
[5] = Metabolic stability in human liver microsomes assessed as half life measured for 5 to 60 mins by LC-MS/MS analysis; format: ADME, Microsome; conditions: time 5-60 min
[6] = Metabolic stability in rat liver microsomes assessed as half life measured for 5 to 60 mins by LC-MS/MS analysis; format: ADME, Microsome; conditions: time 5-60 min
[7] = system: Osimertinib-resistant NCI-H1975 cell; experiment: Induction of apoptosis in human Osimertinib-resistant NCI-H1975 cells assessed as viable cells at 0.5 uM incubated for 16 hrs by Annexin V-FITC/PI staining based flow cytometry (reference value: 89.4 %); format: functional; conditions: read-out: Activity
NCI-H596 = experiment: Anti-proliferative activity against human NCI-H596 cells assessed as cell inhibition measured after 72 hrs by MTT assay; format: functional, cell-based; conditions: NCI-H596, 72 h
[8] = system: Osimertinib-resistant NCI-H1975 cell; experiment: Induction of apoptosis in human Osimertinib-resistant NCI-H1975 cells assessed as early apoptotic cells at 0.5 uM incubated for 16 hrs by Annexin V-FITC/PI staining based flow cytometry (reference value: 4.39 %); format: functional
NCI-H1299 = experiment: Anti-proliferative activity against human NCI-H1299 cells assessed as cell inhibition measured after 72 hrs by MTT assay; format: functional, cell-based; conditions: NCI-H1299, 72 h
16HBE14o- = experiment: Anti-proliferative activity against human 16-HBE cells assessed as cell inhibition measured after 72 hrs by MTT assay; format: functional, cell-based
[9] = system: Osimertinib-resistant NCI-H1975 cell; experiment: Induction of apoptosis in human Osimertinib-resistant NCI-H1975 cells assessed as late apoptotic cells at 0.5 uM incubated for 16 hrs by Annexin V-FITC/PI staining based flow cytometry (reference value: 5.92 %); format: functional
[10] = system: Osimertinib-resistant NCI-H1975 cell; experiment: Induction of apoptosis in human Osimertinib-resistant NCI-H1975 cells assessed as necrotic cells at 0.5 uM incubated for 16 hrs by Annexin V-FITC/PI staining based flow cytometry (reference value: 0.33 %); format: functional
PC-9 = experiment: Anti-proliferative activity against human PC-9 cells assessed as cell inhibition measured after 72 hrs by MTT assay; format: functional, cell-based; conditions: PC-9, 72 h
HCC827 = experiment: Anti-proliferative activity against human HCC827 cells assessed as cell inhibition measured after 72 hrs by MTT assay; format: functional, cell-based; conditions: HCC827, 72 h
[11] = Toxicity in BALB-c mouse xenografted with human NCI-H1975 cells assessed as decrease in body weight at 30 mg/kg, ip; format: organism-based; conditions: in vivo
NCI-H1975 [12] = experiment: Antitumor activity against human NCI-H1975 cells xenografted in BALB-c nude mouse assessed as tumor growth inhibition at 30 mg/kg, ip; format: functional, organism-based
[13] = Toxicity in BALB-c mouse xenografted with human Osimertinib-resistant HCC827 cells assessed as decrease in body weight at 30 mg/kg, ip; format: organism-based; conditions: in vivo
[14] = system: Osimertinib-resistant HCC827 cell; experiment: Antitumor activity against human Osimertinib-resistant HCC827 cells xenografted in BALB-c nude mouse assessed as tumor growth inhibition at 30 mg/kg, ip; format: functional, organism-based

Sequence of CDK9/cyclin T1 (O60563 whole entry): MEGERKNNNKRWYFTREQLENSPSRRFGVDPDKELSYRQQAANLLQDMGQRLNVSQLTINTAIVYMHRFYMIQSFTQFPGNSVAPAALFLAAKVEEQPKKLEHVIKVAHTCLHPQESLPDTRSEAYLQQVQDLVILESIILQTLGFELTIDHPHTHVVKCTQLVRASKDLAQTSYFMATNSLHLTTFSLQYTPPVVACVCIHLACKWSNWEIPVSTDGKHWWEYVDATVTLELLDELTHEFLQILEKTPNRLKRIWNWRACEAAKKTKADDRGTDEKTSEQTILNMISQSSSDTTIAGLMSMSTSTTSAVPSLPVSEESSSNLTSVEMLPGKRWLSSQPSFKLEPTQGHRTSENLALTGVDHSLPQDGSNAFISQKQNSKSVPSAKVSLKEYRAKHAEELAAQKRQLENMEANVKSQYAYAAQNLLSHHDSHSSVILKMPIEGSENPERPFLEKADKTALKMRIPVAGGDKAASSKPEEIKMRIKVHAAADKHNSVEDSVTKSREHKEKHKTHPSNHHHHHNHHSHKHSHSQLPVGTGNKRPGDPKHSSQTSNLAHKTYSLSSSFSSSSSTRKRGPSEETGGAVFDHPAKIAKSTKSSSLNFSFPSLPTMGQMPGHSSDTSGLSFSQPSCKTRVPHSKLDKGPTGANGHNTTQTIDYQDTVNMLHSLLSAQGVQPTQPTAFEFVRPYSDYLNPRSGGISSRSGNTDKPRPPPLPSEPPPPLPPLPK
Sequence of CDK9/cyclin T1 (P50750 whole entry): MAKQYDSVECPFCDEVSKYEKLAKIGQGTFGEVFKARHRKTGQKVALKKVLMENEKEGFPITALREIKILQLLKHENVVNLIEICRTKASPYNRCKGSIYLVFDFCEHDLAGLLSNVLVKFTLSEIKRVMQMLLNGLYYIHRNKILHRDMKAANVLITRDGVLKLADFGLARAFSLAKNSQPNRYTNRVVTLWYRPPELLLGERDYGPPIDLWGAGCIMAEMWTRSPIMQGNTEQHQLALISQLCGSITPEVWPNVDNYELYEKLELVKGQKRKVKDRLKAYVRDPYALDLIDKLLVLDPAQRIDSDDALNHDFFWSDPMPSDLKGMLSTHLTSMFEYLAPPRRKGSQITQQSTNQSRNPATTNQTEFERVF

Structure (SMILES)	IC50 (NCI-H1975 [2]) [nM]	IC50 [3] [nM]	IC50 (CDK9/cyclin T1) [nM]	IC50 (CDK2/Cyclin A2) [nM]	IC50 [4] [nM]	half-life [5] [min]	half-life [6] [min]	further results
O=C(NC1CCN(C2CCOC2)CC1)c1ccc2cc1OCCCCCCOc1cncc(c1)-c1nc(ncc1F)N2 (stereo not given)	60	40	1.1	18.1	–	–	–	solubility at 2 h [1]: 58 µg/mL (≈ 101 µM)
O=C(NCCN1CCCC1)c1ccc2cc1OCCCCCCOc1cc(ccc1F)-c1nc(ncc1F)N2	290	140	1.7	18.3	100	37.7	36.7	–
O=C(NC1CCN(C2CCOCC2)CC1)c1ccc2cc1OCCCCCCOc1cc(ccc1F)-c1nc(ncc1F)N2	–	–	–	–	–	301	–	–
O=C(NC1CCN(C2CCOC2)CC1)c1ccc2cc1OCCCCCCOc1cc(ccc1F)-c1nc(ncc1F)N2 (stereo not given)	380	300	1	150	110	55	25.2	–
O=C(NCCN1CCOCC1)c1ccc2cc1OCCCCCCOc1cc(ccc1F)-c1nc(ncc1F)N2	180	240	–	–	–	10.7	6.8	solubility at 2 h [1]: 17 µg/mL (≈ 30.7 µM)
CC(=O)N1CCC(NC(=O)c2ccc3cc2OCCCCCCOc2cncc(c2)-c2nc(ncc2F)N3)CC1	–	40	1	20.6	–	–	–	–
CN1CCC(NC(=O)c2ccc3cc2OCCCCCCOc2cc(ccc2F)-c2nc(ncc2F)N3)CC1	–	–	–	–	–	66.6	42.5	–
O=C(NC1CCN(C2CC2)CC1)c1ccc2cc1OCCCCCCn1cc(cn1)-c1nc(ncc1F)N2	–	–	1	11.4	–	–	–	–
O=C(NC1CCN(C2CCOC2)CC1)c1ccc2cc1OCCCCCCOc1cc(ccc1F)-c1ncnc(n1)N2 (stereo not given)	110	350	6.1	286	–	–	–	solubility at 2 h [1]: 27 µg/mL (≈ 46.8 µM)
COc1cc(F)ccc1-c1cc(Nc2cc(CS(C)(=N)=O)ccn2)ncc1F (stereo not given) [ENITOCICLIB]	140	130	–	–	120	–	–	viability at 0.5 µM [7]: 76.9%; IC50 (NCI-H596): 90 nM; Activity [8]: 11.8%; IC50 (NCI-H1299): 130 nM; IC50 (16HBE14o-): 410 nM; Activity [9]: 10.1%; Activity [10]: 1.26%; IC50 (PC-9): 120 nM; IC50 (HCC827): 130 nM
CC(C)N1CCC(NC(=O)c2ccc3cc2OCCCCCCOc2cc(ccc2F)-c2nc(ncc2F)N3)CC1	370	–	2.3	67	360	161	8.6	–
O=C(CN1CCOCC1)NCc1ccc2cc1OCCCCCCOc1cc(ccc1F)-c1nc(ncc1F)N2	590	–	5.13	200	–	–	–	solubility at 2 h [1]: 20 µg/mL (≈ 36.1 µM)
O=C(NC1CCN(C2CC2)CC1)c1ccc2cc1OCCCCCCOc1cncc(c1)-c1nc(ncc1F)N2	–	–	1.4	28.3	–	–	–	–
O=C(NC1CCN(C2CCOC2)CC1)c1ccc2cc1OCCCCCCn1cc(cn1)-c1nc(ncc1F)N2 (stereo not given)	90	80	1.3	14.2	–	–	–	solubility at 2 h [1]: 35 µg/mL (≈ 63.7 µM)
O=C(NCCN1CCOCC1)c1ccc2cc1OCCCCCCOc1cncc(c1)-c1nc(ncc1F)N2	70	–	1.5	22.2	–	–	–	solubility at 2 h [1]: 39 µg/mL (≈ 72.7 µM)
CN1CCC(CNC(=O)c2ccc3cc2OCCCCCCOc2cc(ccc2F)-c2nc(ncc2F)N3)CC1	–	–	3.1	38.9	250	112	12.4	–
COC[C@@H](C)NC(=O)c1ccc2cc1OCCCCCCOc1cc(ccc1F)-c1nc(ncc1F)N2	300	280	2.5	> 500	220	11.3	123	–
O=C(NC1CCN(C2CC2)CC1)c1ccc2cc1OCCCCCCOc1cc(ccc1F)-c1nc(ncc1F)N2	320	210	3.4	370	230	21.4	64.7	–
Cc1sc2c(c1C)C(c1ccc(Cl)cc1)=N[C@@H](CC(=O)OC(C)(C)C)c1nnc(C)n1-2	3970	8910	–	–	2290	–	–	Activity [11]: Non-toxic; IC50 (HCC827): 9740 nM; inhibition (NCI-H1975 [12]): inactive; Activity [13]: Non-toxic; inhibition [14]: inactive
CN1CCN(CCNC(=O)c2ccc3cc2OCCCCCCOc2cc(ccc2F)-c2nc(ncc2F)N3)CC1	–	–	–	–	–	13.2	9.5	–
CCN1CCC(NC(=O)c2ccc3cc2OCCCCCCOc2cc(ccc2F)-c2nc(ncc2F)N3)CC1	280	–	2.3	68.8	280	257	5.4	–

From ChEMBL document CHEMBL6153135, “Rational Design of a Potent, Selective, and Metabolically Stable CDK9 Inhibitor to Counteract Osimertinib Resistance through Mcl-1 Suppression and Enhanced BRD4 Co-Targeting” (J Med Chem, 2025)
